Source: patent publication US20200270309A1, “MALEIMIDE GROUP-MODIFIED ANGIOGENESIS INHIBITOR HM-1 AND USE THEREOF” (NANJING ANJI BIOLOGICAL TECHNOLOGY CO., LTD, priority 2017, published 2020)
Peptide text beside a SMILES is read from it. * marks the point of attachment. X66 = O=C1C=CC(=O)N1c1cccc(CCCCCCCC(=O)*)c1

System: xylene-induced ear swelling
Assay: Xylene-induced mouse ear swelling
Assay type: in vivo
Details: Kunming mice, dose 2 mg/kg, injected once a day for 5 days
Experimental: Kunming mice were taken, a normal saline group was taken as a blank control group, an aspirin group (200 mg/kg) was taken as a positive control group, and X1-X90 administration groups were taken as test groups. The mice were injected once a day for 5 consecutive days. The blank control group was given an equal volume of normal saline. One hour after the last administration, 0.05 mL of xylene was applied to both sides of the right ear of each mouse to cause inflammation, while no drug was applied to the left ear as a normal ear. Two hours later, the mice were put to death by dislocation. Two ears were cut along the auricle. Ear pieces were taken with a puncher and weighed, and the swelling degree and the swelling rate were calculated. Swelling degree=right ear piece weight-left ear piece weight, swelling rate=(swelling degree/left ear piece weight)*100%. Statistical t-test was conducted on the experimental results. *P<0.05 indicates significant difference, and **P<0.01 indicates extremely significant difference.

C[C@H](NC(=O)CNC(=O)[C@H](CCCNC(=N)N)NC(=O)CCCCCCCc1cccc(N2C(=O)C=CC2=O)c1)C(=O)N[C@@H](CC(=O)O)C(=O)N[C@@H](CCCNC(=N)N)C(=O)N[C@@H](C)C(=O)NCC(=O)NCC(=O)NCC(=O)NCC(=O)N[C@@H](CCCNC(=N)N)C(=O)NCC(=O)N[C@@H](CC(=O)O)C(=O)O [X31] (X66-RGADRAGGGGRGD-OH)
Swelling degree (right minus left ear piece weight 2 h after xylene): 3.16 ± 0.55 mg | Inhibition rate (%) (xylene-induced ear swelling): 16.85%
